Experimental data: patent US20240368150A1 (Hoffmann-La Roche Inc., priority 2021, published 2024)
Where two headings read alike, the source gives them in different places.

How the values were obtained:
[1] = tested on: primary human T-cells; experiment: Proliferation assay after 5 days (CellTiter-Glo, CD3 stimulation; PBS counter screen); assay type: cell-based; details: Homo sapiens, T-cell, 120 h, CD3 stimulation; for Emax: 5 days, normalized to reference compound A1 as stimulator control = 100%, DMSO neutral control, read-out: Emax proliferation (% activation); for EC50: primary human T-cells, CellTiter-Glo after 5 days, EC50 of fitted sigmoidal curve, read-out: Tcell Proliferation CD3 EC50
In short: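 Cpds added to medium-only plates; 5 d culture. Readout CellTiter-Glo 2.0 (equal vol), RT 45 min equilibration, 15 min rocking RT, luminescence. ATP signal taken as cell number.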

[2] = biological target: hDGKzeta(1-928)-N-His (Homo sapiens (Human), UniProt Q13574); experiment: DGKzeta ADP Glo assay (in vitro DGK inhibition); assay type: biochemical; details: DLG 125 uM, ATP 50 μM, DGK ζ 2 nM, 1 hour reaction
In short: (§1)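 His-tagged human DGKα (4 nM) and DGKζ (2 nM) phosphorylate DLG presented in DLG/PS/PC liposomes using ATP; reaction run 1 hour. ADP formed measured by ADP-Glo luminescence. Compounds tested as 11-point 1:3 dose response […], 2% DMSO final.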

[3] = tested on: MV-3 cells; experiment: T-cell - TCB - MV3 killing assay (MCSP-TCB, RFP object count by Incucyte); assay type: cell-based, human; details: Homo sapiens, MV-3, 120 h, 5 d; for Emax: normalized: MCSP-TCB only = neutral control, 20 μM reference compound A1 = 100%, read-out: MSCP TCB killing MV-3 cells 5 d Emax; for EC50: primary human T-cells + MCSP-TCB, MV-3 RFP cells, read-out: MSCP TCB killing MV-3 cells 5 d EC50
[4] = biological target: hDGKalpha(1-735)-N-His (Homo sapiens (Human), UniProt P23743); experiment: DGKalpha ADP Glo assay (in vitro DGK inhibition); assay type: biochemical; details: DLG 125 uM, ATP 25 μM, DGK α 4 nM, 1 hour reaction
In short: as §1

[5] = tested on: primary human T-cells

Sequence of hDGKzeta(1-928)-N-His (Q13574 whole entry): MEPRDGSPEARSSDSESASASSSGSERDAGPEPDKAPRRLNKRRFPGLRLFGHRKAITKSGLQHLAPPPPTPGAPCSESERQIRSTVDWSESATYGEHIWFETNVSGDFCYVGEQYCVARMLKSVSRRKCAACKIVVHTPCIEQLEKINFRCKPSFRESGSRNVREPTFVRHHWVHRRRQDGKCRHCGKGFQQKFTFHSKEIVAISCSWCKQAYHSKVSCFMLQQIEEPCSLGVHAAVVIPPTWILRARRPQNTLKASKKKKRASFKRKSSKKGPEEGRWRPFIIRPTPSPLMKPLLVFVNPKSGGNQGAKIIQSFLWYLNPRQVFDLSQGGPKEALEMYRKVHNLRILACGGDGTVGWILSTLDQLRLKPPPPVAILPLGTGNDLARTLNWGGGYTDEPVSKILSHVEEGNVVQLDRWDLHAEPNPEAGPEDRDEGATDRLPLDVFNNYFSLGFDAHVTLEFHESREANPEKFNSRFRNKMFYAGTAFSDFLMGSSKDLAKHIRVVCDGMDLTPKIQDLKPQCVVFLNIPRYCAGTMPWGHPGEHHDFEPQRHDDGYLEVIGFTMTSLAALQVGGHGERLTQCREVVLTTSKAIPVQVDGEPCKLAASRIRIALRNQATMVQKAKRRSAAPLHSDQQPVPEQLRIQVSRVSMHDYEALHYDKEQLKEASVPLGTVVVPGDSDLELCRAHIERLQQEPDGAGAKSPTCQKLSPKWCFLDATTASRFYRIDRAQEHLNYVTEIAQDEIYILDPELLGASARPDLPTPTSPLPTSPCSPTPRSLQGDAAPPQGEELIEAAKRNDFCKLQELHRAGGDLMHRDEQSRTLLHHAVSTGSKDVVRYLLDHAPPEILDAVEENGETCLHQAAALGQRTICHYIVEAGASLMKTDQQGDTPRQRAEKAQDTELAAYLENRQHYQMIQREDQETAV
Sequence of hDGKalpha(1-735)-N-His (P23743 whole entry): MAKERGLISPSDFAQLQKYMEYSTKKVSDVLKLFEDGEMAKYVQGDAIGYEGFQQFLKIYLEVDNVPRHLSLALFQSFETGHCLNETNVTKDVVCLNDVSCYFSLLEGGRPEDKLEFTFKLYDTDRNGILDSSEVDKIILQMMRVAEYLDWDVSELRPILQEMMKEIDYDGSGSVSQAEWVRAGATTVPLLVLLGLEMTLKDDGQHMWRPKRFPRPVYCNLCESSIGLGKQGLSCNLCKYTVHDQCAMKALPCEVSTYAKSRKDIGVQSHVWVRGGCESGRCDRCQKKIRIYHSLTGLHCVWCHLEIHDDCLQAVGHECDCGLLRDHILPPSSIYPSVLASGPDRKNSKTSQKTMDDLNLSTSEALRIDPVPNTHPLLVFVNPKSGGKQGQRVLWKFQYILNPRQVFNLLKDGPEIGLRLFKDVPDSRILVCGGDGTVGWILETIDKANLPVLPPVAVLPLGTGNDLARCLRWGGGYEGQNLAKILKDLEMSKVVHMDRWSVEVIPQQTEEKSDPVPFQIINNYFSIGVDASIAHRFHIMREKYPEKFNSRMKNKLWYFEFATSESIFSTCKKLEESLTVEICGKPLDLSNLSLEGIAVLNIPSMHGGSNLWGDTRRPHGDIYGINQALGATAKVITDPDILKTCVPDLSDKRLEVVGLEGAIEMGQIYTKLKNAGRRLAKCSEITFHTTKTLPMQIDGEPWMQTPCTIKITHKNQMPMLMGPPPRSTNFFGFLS

| IC50 [2] [nM] | IC50 [4] [nM] | EC50 [5] [nM] | SMILES | Emax [1] [%] | EC50 [1] [nM] | Emax [3] [%] | EC50 [3] [nM] |
| --- | --- | --- | --- | --- | --- | --- | --- |
| 632 | 625 | 508 | N[C@H]1CS(=O)(=O)c2cc(F)c(-c3nnc(NC4CCC4)o3)cc2N(Cc2ccc(Cl)cc2)C1=O [Example 459, (3R)-3-amino-5-[(4-chlorophenyl)methyl]-7-[5-(cyclobutylamino)-1,3,4-oxadiazol-2-yl]-8-fluoro-1,1-dioxo-2,3-dihydro-1λ^6,5-benzothiazepin-4-one] | 91 | 591 | 91 | 330 |
| 1030 | 2090 | 458 | N[C@H]1CS(=O)(=O)c2cc(F)c(-c3nnc(NC4CCCCC4)o3)cc2N(Cc2ccc(Cl)cc2)C1=O [Example 466, (3R)-3-amino-5-[(4-chlorophenyl)methyl]-7-[5-(cyclohexylamino)-1,3,4-oxadiazol-2-yl]-8-fluoro-1,1-dioxo-2,3-dihydro-λ^6,5-benzothiazepin-4-one] | 103 | 454 | 95 | 240 |
